Results taken from PubChem BioAssay (NCI).
“And” between values parts separate entries of the source, which are not always exact repeats. Identical values can stand only once.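 Each compound was tested at five concentrations against cells in 96-well plates for 48 hours. GI50 = concentration required for 50% inhibition of growth. The concentration for full growth arrest is given as TGI.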

Legend:
Assay in all cases: NCI-60 cell line screen, 48 h
COLO 205 colon = tested on: COLO 205 colon
HOP-62 NSCLC = tested on: HOP-62 NSCLC
HOP-92 NSCLC = tested on: HOP-92 NSCLC
KM12 colon = tested on: KM12 colon
MALME-3M melanoma = tested on: MALME-3M melanoma
MDA-MB-435 = tested on: MDA-MB-435
NCI-H226 lung = tested on: NCI-H226 lung
OVCAR-3 ovarian = tested on: OVCAR-3 ovarian
SF-295 CNS = tested on: SF-295 CNS
SK-MEL-28 melanoma = tested on: SK-MEL-28 melanoma
SW-620 colon = tested on: SW-620 colon

Compound	TGI (COLO 205 colon) [µM]	TGI (HOP-62 NSCLC) [µM]	TGI (HOP-92 NSCLC) [µM]	TGI (KM12 colon)	TGI (MALME-3M melanoma) [µM]	TGI (MDA-MB-435) [µM]	TGI (NCI-H226 lung) [µM]	TGI (OVCAR-3 ovarian) [µM]	TGI (SF-295 CNS) [µM]	TGI (SK-MEL-28 melanoma) [µM]	TGI (SW-620 colon) [µM]	GI50 (HOP-62 NSCLC) [µM]	GI50 (HOP-92 NSCLC) [µM]
COc1ccc(NC(=S)c2ccc([N+](=O)[O-])o2)cc1	2.75	8.26	30.6	3.55 µM	7.83	5.66	8.75	4.42	10.6	12.5	2.9	–	–
Fc1ccc2c(c1)SC1=Nc3sc4cc(F)ccc4[n+]3CN12	> 100	56.1	51.6	–	47.1	> 100	56.8	36	74	> 100	> 100	–	–
S=c1[nH]nc(Cn2c3ccc(Br)cc3c3nc4ccccc4nc32)o1	> 100	99.2	47	> 100 µM	> 100	> 31.6	> 100	> 73.7	> 100	> 79.2	> 31.6	–	–
NC(Cc1cc(I)c(Oc2ccc(O)c(I)c2)c(I)c1)C(=O)O (stereo not given)	> 100	> 100	> 100	> 100 µM	> 100	> 100	> 100	> 100	> 100	> 100	> 100	–	–
NS(=O)(=O)c1c(O)c2ccccc2oc1=O	> 100	> 100	> 100	> 100 µM	> 100	> 100	> 100	> 100	> 100	> 100	> 100	–	–
Cc1cnc2[nH]c(-c3cccc4ccccc34)cc(=O)c2c1	0.00496	> 100	33.5	0.25 µM and 1.45 µM	0.000989	0.000499	59.9	–	> 100	> 100	> 100	0.127	0.0464
CCCCCC(=O)OC[n+]1cccc(-c2c(COC(=O)NC(C)C)c(COC(=O)NC(C)C)c3n2CCC3)c1	> 100	> 100	77.2	> 100 µM	> 100	> 100	> 100	> 100	> 100	> 100	> 100	–	–
CN(/N=C/c1ccccn1)C1=NCCN1	> 100	> 100	> 100	> 100 µM	> 100	> 100	> 100	> 100	> 100	> 100	> 100	–	–
CC(=O)Oc1ccc(-c2nnc(-c3ccc(OC(C)=O)cc3)nn2)cc1	> 100	> 100	> 100	> 100 µM	> 100	> 100	> 100	> 100	> 100	> 100	> 100	–	–
CC(C)C(=O)Cc1ccc2ccccc2n1	> 100	> 100	> 100	> 100 µM	> 100	> 100	> 100	> 100	> 100	> 100	> 100	–	–
NC(CCC(=O)O)C(=O)NC(Cc1ccc(N(CCCl)CCCl)cc1)C(=O)O (stereo not given)	> 100	> 100	> 100	> 100 µM	> 100	> 100	> 100	> 100	> 100	> 100	> 100	–	–
O=C(/C=C/c1ccccc1)CCN1CCCCC1	38.4	> 100	> 100	> 100 µM	> 100	84.4	> 100	> 100	> 100	58.5	41.6	–	–
Cc1cn([C@H]2C[C@@H](N3C(=O)c4ccccc4C3=O)[C@@H](CO[Si](C)(C)C(C)(C)C)O2)c(=O)[nH]c1=O	> 100	61.4	> 100	> 100 µM	> 100	> 100	> 100	> 100	> 100	> 100	> 100	–	–
CO/C(N)=C(\C#N)N=Cc1ccsc1	> 100	> 100	> 100	> 100 µM	> 100	> 100	> 100	> 100	> 100	> 100	> 100	–	–
Cc1ccc2c(=O)cc(-c3cc(C)sc3C)[nH]c2n1	7.52	> 100	> 100	> 100 µM	> 100	2.86	7.62	58.6	7.54	> 100	19.4	–	–
